{"source": "paper PMC8397403", "about": "“Physiologically Based Pharmacokinetic Modeling of Transporter-Mediated Hepatic Disposition of Imaging Biomarker Gadoxetate in Rats” (Molecular Pharmaceutics, 2021)", "key": {"[1]": {"experiment": "Pitavastatin uptake in plated rat hepatocytes with and without rifamycin SV (positive control for transporter activity)", "format": "in vitro ADME", "conditions": "male, Sprague-Dawley, rat, plated primary rat hepatocytes; pitavastatin 0.2 μM, absence of rifamycin SV, 0.5-2 min; mean (CV 24%); read-out: Unbound intrinsic uptake clearance (CLint,u)", "method": "(§1) Male adult Sprague-Dawley rats (Charles River, Margate, Kent, UK) were housed in groups of two in individually ventilated cages with free access to food (Chow rat and mouse diet) and fresh drinking water. The designated rat housing facility maintained a controlled temperature (20 ± 3 °C), humidity (40–70%), and 12 h light/dark cycle conditions. All animal protocols were approved by the University of Manchester review committee and adhered to the UK Home Office Animals (Scientific Procedures) Act (1986). Rats (250–300 g) were sacrificed using CO2 overdose followed by cervical dislocation in the morning of the study day. The kinetics experiment, as described below, was performed using n = 4 animals. […] Following sample preparation including addition of internal standard (Table S1), gadoxetate and pitavastatin in cell samples, and gadoxetate in media samples, were quantified by liquid chromatography–tandem mass spectrometry (LC–MS/MS). LC–MS/MS quantification was performed using selective reaction monitoring (SRM) against calibration standards; only standards within 30% of nominal concentration were included. The protein content of plated rat hepatocytes was measured using the Pierce BCA Protein Assay Kit (Thermo Fisher Scientific, Paisley, UK). […]"}, "[2]": {"tested_on": "active uptake transport of gadoxetate into the liver", "experiment": "Simultaneous PBPK fitting of gadoxetate DCE-MRI data in control and rifampicin phases", "format": "in vivo, rat", "conditions": "Rattus norvegicus", "method": "DCE–MRI data generated using the 3D Fast Low Angle Shot RF-spoiled gradient echo sequence (FLASH) protocol in male Wistar-Han rats were used for assessing the PBPK IVIVE performances and for obtaining some of the PBPK parameters within the bottom-up and top-down approaches, respectively. The DCE–MRI data were acquired in a multicenter study at two magnetic field strengths, 4.7 and 7 T. Gadoxetate was administered at a dose of 25 μmol/kg, either alone or 1 h after IV administration of 10 mg/kg rifampicin. When gadoxetate was administered alone (control arm), 43 profiles of blood, spleen, and liver measured at a field strength of 4.7 T and 52 profiles of blood, spleen, and liver measured at 7 T were available. In the case of gadoxetate administered with rifampicin, 7 blood, spleen, and liver profiles at a field strength equal to 4.7 T and 6 at 7 T were available. All gadoxetate DCE–MRI data and study protocols are detailed in a companion paper (Hines et al. in submission).\nThe DCE–MRI data used in this study were reported as ΔR1. Therefore, the relationship between the compartmental concentrations represented by the PBPK model state variables and the ΔR1 measurements for the blood, liver, and spleen needed to be described. The linear relationship in eq 4 is not valid for ΔR1 of the liver, ΔR1,liv, because intracellular and extracellular tissue compartments have different relaxivities. To derive ΔR1,liv, a volume fraction-weighted mean of the contributions of the gadoxetate concentration in all the compartments used to model the liver was performed.[40] In the spleen, the entire distribution space was supposed to have the same relaxivity as blood and, therefore, eq 4 can be applied directly to derive spleen concentrations from ΔR1,spl. Concerning the blood, the blood value for r1 in Table 1 allows ΔR1,b to be directly related to the blood concentration. The relations between ΔR1,liv, ΔR1,spl, and ΔR1,b and the concentrations of the PBPK compartments are shown in eq 7. [drawing 7] 7 cspl,extr is the extracellular concentration in the spleen and Vspl,extr is the extracellular volume of the spleen and Vliv and Vspl are the whole volumes of liver and spleen. r1,liv,extr and r1,spl,extr were assumed to be equal to r1,b, as described in Hines et al.\nIn fact, each of the data are acquired during a time interval Δt, which was 57 s in the current dataset. To account for this characteristic when performing the parameter estimation, the residuals were calculated as the difference of the observed ΔR1 corresponding to a given time interval minus the mean of the simulated PBPK ΔR1 within the same interval, as explained in the Supporting Information, Section 4.\nThe extent of interaction with rifampicin was estimated by performing a simultaneous fitting of gadoxetate ΔR1 in the control and inhibitory phase. In this analysis, PS was considered the same for both phases, whereas the other parameters were separately estimated in the absence (CLactive and CLbiliary) and in the presence of rifampicin (CLactive,inh and CLbiliary,inh). CLbiliary,inh was considered to account for possible inhibition of Mrp2 in rat by rifampicin, as previously reported.[45] To understand the impact of the inclusion of the liver-imaging data on the parameter optimization, the simultaneous estimation was also performed considering only the blood data.\nAll the PBPK analyses were performed in MATLAB R2020a,[50] the ordinary differential equations were solved with the function “ode15s”, while the parameter optimization was performed with the function “lsqnonlin”. The uncertainty of the parameters estimate was evaluated with the case-bootstrap,[51] using 1000 samples."}, "plated rat hepatocytes": {"tested_on": "plated rat hepatocytes", "experiment": "Pitavastatin uptake in plated rat hepatocytes with and without rifamycin SV (positive control for transporter activity)", "format": "in vitro ADME", "conditions": "100 μM rifamycin SV; pitavastatin 0.2 μM; mean (CV 23%)", "method": "as §1"}}, "note": "Read-outs that look alike come from different tables or passages of the source."}
{"molecule": "O=C(O)C[C@H](O)C[C@H](O)/C=C/c1c(C2CC2)nc2ccccc2c1-c1ccc(F)cc1", "note": "[pitavastatin]", "values": [{"measurement": "hepatocyte CLint at 0.2 μM", "setting": "[1]", "result": 95.7, "unit": "µL/min/1e6 cells"}]}
{"molecule": "CO[C@H]1/C=C/O[C@@]2(C)Oc3c(C)c(O)c4c(O)c(c(/C=N/N5CCN(C)CC5)c(O)c4c3C2=O)NC(=O)/C(C)=C\\C=C\\[C@H](C)[C@H](O)[C@@H](C)[C@@H](O)[C@@H](C)[C@H](OC(C)=O)[C@@H]1C", "note": "[rifampicin]", "values": [{"measurement": "inhibition at 10 mg/kg", "setting": "[2]; iv, rifampicin i.v. 10 mg/kg, fit with blood, spleen and liver data, read-out: inhibition of gadoxetate CLactive (active uptake into the liver)", "result": 96, "unit": "%"}, {"measurement": "inhibition at 10 mg/kg", "setting": "[2]; rifampicin 10 mg/kg, only blood ΔR1 profiles (without liver data), read-out: inhibition of gadoxetate CLactive, blood ΔR1 only", "result": 84, "unit": "%"}]}
{"molecule": "CO[C@H]1/C=C/O[C@@]2(C)Oc3c(C)c(O)c4c(O)c(cc(O)c4c3C2=O)NC(=O)/C(C)=C\\C=C\\[C@H](C)[C@H](O)[C@@H](C)[C@@H](O)[C@@H](C)[C@H](OC(C)=O)[C@@H]1C", "note": "[rifamycin SV]", "values": [{"measurement": "reduction of the uptake of pitavastatin", "setting": "plated rat hepatocytes", "result": 54, "unit": "%"}]}
